Experimental findings from patent publication US7560466B2, “Methods of treating or preventing autoimmune diseases with 2,4-pyrimidinediamine compounds” (Rigel Pharmaceuticals, Inc., priority 2003, dated 2009) are described below.

pIC50: −log10 of the molar value. Counter-ions that a name gives are not always drawn. Like-named read-outs stand apart in the source and are kept apart here.

Assay [1] relates to cultured human mast cells (CHMC), IgE-induced degranulation. Put plainly: CHMC low cell density IgE activation: tryptase assay. The class given is cell-based. The gist of the method:
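Tryptase release read fluorogenically (30 min, room temperature) from supernatants of anti-IgE-challenged cultured human mucosal mast cells derived from umbilical cord CD34+ cells, at low density of 1000–1500 cells/well.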

Assay [2] deals with cultured human mast cells (CHMC), ionomycin-induced degranulation. As to the kind of experiment: CHMC low cell density ionomycin activation: tryptase assay. It is filed as cell-based. To be noted: ionomycin activation, read-out: LD Tryptase, CHMC, Iono, 3pt.
[3] abbreviates: low cell density CHMC, 3pt, read-out: LD Tryptase, CHMC, IgE, 3pt.
The mark [4] stands for this setting: low cell density CHMC, 8pt, read-out: LD Tryptase, CHMC, IgE, 8pt.
Setting [5] is: low cell density CHMC, 3-point, read-out: LD Tryptase, CHMC, IgE, 3pt.
Where [6] appears, read: low cell density CHMC, 8-point, read-out: LD Tryptase, CHMC, IgE, 8pt.
[7] abbreviates: Homo sapiens, Mast cell, low cell density CHMC, 3pt, read-out: LD Tryptase, CHMC, IgE, 3pt.
The mark [8] stands for this setting: Homo sapiens, Mast cell, low cell density CHMC, 8pt, read-out: LD Tryptase, CHMC, IgE, 8pt.
[9] abbreviates: CHMC low cell density, 8pt, read-out: LD Tryptase, CHMC, IgE, 8pt.

Turning to `COc1cc(C)c(Nc2ncc(F)c(Nc3ccc4c(c3)NC(C)(C)CO4)n2)cc1Cl` [Compound 216, N2-(3-Chloro-4-methoxy-6-methylphenyl)-N4-(3,4-dihydro-3,3-dimethyl-2H,4H-benz[1,4]oxazin-6-yl)-5-fluoro-2,4-pyrimidinediamine], the pIC50 in assay [1] (setting [3]) is greater than 5.00; in assay [1] (setting [4]), greater than 5.00; in assay [2] (low cell density CHMC, 3pt), less than 5.00. For `Fc1cnc(Nc2cccc(-c3ncco3)c2)nc1Nc1ccc2c(c1)NCCO2` [Compound 217, N4-(3,4-Dihydro-2H,4H-benz[1,4]oxazin-6-yl)-5-fluoro-N2-[3-(oxazol-2-yl)phenyl]-2,4-pyrimidinediamine], the pIC50 in assay [1] (setting [3]) was greater than 5.00; in assay [1] (setting [4]) it was greater than 5.00; in assay [2] (low cell density CHMC, 3pt), less than 5.00. For the compound `CNC(=O)COc1cccc(Nc2ncc(F)c(Nc3ccc4c(n3)NC(=O)C(C)(C)O4)n2)c1` [Compound 992, N4-(2,2-Dimethyl-3-oxo-4H-5-pyrid[1,4]oxazin-6-yl)-5-fluoro-N2-[3-(N-methylamino)carbonylmethyleneoxyphenyl]-2,4-pyrimidinediamine (+)-Camphorsulfonic Acid Salt], in assay [2] (CHMC low cell density, 3pt), the pIC50 was less than 5.00.

As for `Cn1ncc2ccc(Nc3ncc(F)c(Nc4ccc5c(n4)NC(=O)C(C)(C)O5)n3)cc21` [Compound 1056, N4-(2,2-Dimethyl-3-oxo-4H-5-pyrid[1,4]oxazin-6-yl)-5-fluoro-N2-[1-methylindazol-6-yl]-2,4-pyrimidinediamine Hydrogen Chloride Salt], in assay [2] (low cell density CHMC, 3-point), the pIC50 is less than 5.00. `CC(=O)N1CCN(c2cccc(Nc3ncc(F)c(Nc4ccc5c(n4)NCCO5)n3)c2)CC1` [Compound 1137, N2-[3-(4-Acetylpiperazino)phenyl]-N4-(3,4-dihydro-2H,4H-5-pyrid[1,4]oxazin-6-yl)-5-fluoro-2,4-pyrimidinediamine]: the pIC50 in assay [1] (setting [5]) and in assay [1] (setting [6]) was greater than 5.00 throughout. As to `CCOC(=O)N1CCN(c2cccc(Nc3ncc(F)c(Nc4ccc5c(n4)NCCO5)n3)c2)CC1` [Compound 1138, N4-(3,4-Dihydro-2H,4H-5-pyrid[1,4]oxazin-6-yl)-N2-[3-(4-ethoxycarbonylpiperazino)phenyl]-5-fluoro-2,4-pyrimidinediamine], the pIC50 in assay [1] (setting [5]) and in assay [1] (setting [6]) was greater than 5.00 in each case. In the case of `CN1CCN(c2ccc(Nc3ncc(F)c(Nc4ccc5c(n4)NCCO5)n3)cc2Cl)CC1` [Compound 1197, N2-[3-Chloro-4-(4-methylpiperazino)phenyl]-N4-(3,4-dihydro-2H,4H-5-pyrid[1,4]oxazin-6-yl)-5-fluoro-2,4-pyrimidinediamine], the pIC50 in assay [1] (setting [3]) and in assay [1] (setting [4]) was greater than 5.00 throughout. On to `Cc1cc(Nc2ncc(F)c(Nc3ccc4c(n3)NCCO4)n2)ccc1N1CCN(C)CC1` [Compound 1203, N4-(3,4-Dihydro-2H,4H-5-pyrid[1,4]oxazin-6-yl)-5-fluoro-N2-[3-methyl-4-(4-methylpiperazino)phenyl]-2,4-pyrimidinediamine], for which the pIC50 in assay [1] (setting [3]) and in assay [1] (setting [4]) was greater than 5.00 in each case. Take `C[C@@H]1Oc2ccc(Nc3nc(Nc4ccc(C(=O)N=CC(=O)O)cc4)ncc3F)cc2NC1=O` [Compound 1264]: the pIC50 in assay [1] (setting [7]) was less than 5.00. Turning to `C[C@H]1Oc2ccc(Nc3nc(Nc4ccc(C(=O)N=CC(=O)O)cc4)ncc3F)cc2NC1=O` [Compound 1267], the pIC50 in assay [1] (setting [7]) was less than 5.00. As to `C[C@@H]1Oc2ccc(Nc3nc(NC4=CC=CC(=CNC(=O)OC(C)(C)C)C4)ncc3F)cc2NC1=O` [Compound 1276], the pIC50 in assay [1] (setting [7]) and in assay [1] (setting [8]) was greater than 5.00 in each case. For `C[C@@H]1Oc2ccc(Nc3nc(NC4=CC=CC(=CN)C4)ncc3F)cc2NC1=O` [Compound 1279], the pIC50 in assay [1] (setting [7]) and in assay [1] (setting [8]) was greater than 5.00 each time. On to `C[C@H]1Oc2ccc(Nc3nc(Nc4cccc(CN)c4)ncc3F)cc2NC1=O` [Compound 1280], for which the pIC50 in assay [1] (setting [3]) and in assay [1] (setting [4]) was greater than 5.00 each time. With “(R)—N2-[3-(N-tert-Butoxycarbonylamino)methylenephenyl]-5-fluoro-N4-(2-methyl-3-oxo-2H,4H-benz[1,4]oxazin-6-yl) [Compound 1277]”, the pIC50 in assay [1] (setting [3]) and in assay [1] (setting [4]) was greater than 5.00 throughout. Turning to “(S)-5-Fluoro-[1-(2-hydroxymethyl)-2-trifluoromethylbenzimidazol-5-yl]-N4-(2-methyl-3-oxo-2H,4H-benz[1,4]oxazin-6-yl)-2,4-pyrimidinediamine [Compound 923]”, the pIC50 in assay [1] (setting [9]) was greater than 5.00. With “N2-(2-Aminocarbonylphenyl)-N4-(2,2-dimethyl-3-oxo-4H-5-pyrid[1,4]oxazin-6-yl)-5-fluoro-2,4-pyrimidinediamine [Compound 1316]”, the pIC50 in assay [1] (setting [3]) is greater than 5.00; in assay [1] (setting [4]), less than 5.00. As for “N2-(4-Aminocarbonylphenyl)-N4-(2,2-dimethyl-3-oxo-4H-5-pyrid[1,4]oxazin-6-yl)-5-fluoro-2,4-pyrimidinediamine [Compound 1315]”, the pIC50 in assay [1] (setting [3]) was greater than 5.00. The same measure, in the same setting: as for “N4-(2,2-Dimethyl-3-oxo-4H-5-pyrid[1,4]oxazin-6-yl)-5-fluoro-N2-(3-methoxycarbonylppyrid-2yl)-2,4-pyrimidinediamine [Compound 1314]”, the figure is greater than 5.00; as for “N4-(2,2-Dimethyl-3-oxo-4H-5-pyrid[1,4]oxazin-6-yl)-5-fluoro-N2-(4-methoxycarbonylphenyl)-2,4-pyrimidinediamine [Compound 1313]”, greater than 5.00. Regarding “N4-(2,2-Dimethyl-3-oxo-4H-5-pyrid[1,4]oxazin-6-yl)-5-fluoro-[1-(2-hydroxymethyl)-2-trifluoromethylbenzimidazol-5-yl]-2,4-pyrimidinediamine [Compound 924]”, the pIC50 in assay [1] (setting [9]) is greater than 5.00. Same read-out and setting: as for “N4-(2,2-Dimethyl-3-oxo-4H-5-pyrid[1,4]oxazin-6-yl)-N2-(1-methyl-2-trifluoromethylbenzimidazol-5-yl)-2,4-pyrimidinediamine [Compound 915]”, the figure is greater than 5.00. For “N4-(2,2-Dimethyl-3-oxo-4H-N4-oxo-5-pyrido[1,4]oxazin-6-yl)-5-fluoro-N2-(3,4,5-trimethoxyphenyl)-2,4-pyrimidinediamine [Compound 1340]”, the pIC50 in assay [1] (setting [3]) and in assay [1] (setting [4]) was greater than 5.00 in each case. For “N4-(2,2-Dimethyl-3-oxo-4H-benz[1,4]oxazin-6-yl)-5-fluoro-N2-{1-methyl-2-[(methylsulfonyl)methyl]benzimidazol-5-yl}-2,4-pyrimidinediamine [Compound 967]”, the pIC50 in assay [1] (CHMC low cell density, 3pt, read-out: LD Tryptase, CHMC, IgE, 3pt) is greater than 5.00; in assay [1] (setting [9]), greater than 5.00.

For the compound “N4-(2,2-Dimethyl-3-oxo-4H-benz[1,4]oxazin-6-yl)-5-fluoro-[1-(2-hydroxymethyl)-2-trifluoromethylbenzimidazol-5-yl]-2,4-pyrimidinediamine [Compound 922]”, the pIC50 in assay [1] (setting [9]) was greater than 5.00. In the case of “N4-(2,2-Dimethyl-3-oxo-4H-benz[1,4]oxazin-6-yl)-N2-(1-methyl-2-trifluoromethylbenzimidazol-5-yl)-2,4-pyrimidinediamine [Compound 913]”, in assay [1] (setting [9]), the pIC50 was greater than 5.00. For the compound “N4-[benzoxathiazin-3(4H)-one-6-yl]2-chloro-5-fluoro-4-pyrimidinea mine [Compound 319]”, in assay [1] (setting [3]), the pIC50 is greater than 5.00.
